Test results: patent US20110262555A1, “METHODS AND COMPOSITIONS FOR REDUCING OR PREVENTING VASCULAR CALCIFICATION DURING PERITONEAL DIALYSIS THERAPY” (BAXTER INTERNATIONAL INC., priority 2010, published 2011)
Read-outs that look alike come from different tables or passages of the source.

Experiments:
female rats = conditions: for diaphragmatic inflammation, severity grade / thickness of the diaphragm section involved by inflammation: 7 days intraperitoneal
Description: A maximum tolerated dose study was conducted according to the study design in Table 3. Solutions that were administered were made up of a dextrose concentrate or a modified dextrose concentrate and a buffer concentrate or a modified buffer concentrate mixed in a 3:1 ratio (dextrose:buffer). Each test or control article was administered intraperitoneally once daily for 7 consecutive days to each of five different female rats at volumes of 40 mL/kg via a butterfly needle as a bolus injection. Necropsy was performed one day after the last dose.
Tissue samples of the diaphragms from all rats were trimmed, processed, embedded in paraffin, and sectioned. Hematoxylin and eosin stained slides were prepared and examined by light microscopy. Microscopic observations were subjectively graded based on the relative severity of the change: Grade 1=minimal, Grade 2=mild, Grade 3=moderate, grade 4=marked.

[1] = tested on: APOe-KO/CRF mouse model of vascular calcification; conditions: for total aortic calcium content, effect on CRF-induced elevation: daily intraperitoneal, 8 weeks
Description: Homozygous apolipoprotein E knockout (apoE^−/−) mice were housed in polycarbonate cages in a pathogen-free, temperature-controlled (25° C.) room with a strict 12-hour light/dark cycle and with free access to lab chow and water. All procedures were in accordance with National Institutes of Health (“NIH”) guidelines for the care and use of experimental animals (NIH publication No. 85-23).
A 2-step procedure was used to create CRF in the mice at 10 weeks of age. Briefly, at age of 8 weeks, cortical electrocauterisation was applied to the right kidney through a 2-cm flank incision and contralateral total nephrectomy was performed through a similar incision 2 weeks later. Other mice underwent a 2-step procedure of sham operations with decapsulation of both kidneys with a 14-day distance between the two operations. Blood samples were taken 2 weeks after nephrectomy, and intra-peritoneal catheters were implanted at this time.
At the end of the study, the heart with the aortic root was then separated from ascending aorta. Cryosections of the aortic root tissue were used for quantification of vascular calcification and were used to assess atherosclerotic lesions at the site of the root. The thoracic part of the aorta was stored at −80° C. and used for quantification of calcium content.
Mice having high LDL will develop atherosclerosis. Those with the added partial nephrectomy will develop kidney impairment and were expected to produce marked vascular calcification of the heart and aorta, thus mimicking the disease seen in many dialysis patients. All groups were treated in a manner to mimic a peritoneal dialysis therapy, with a peritoneal dialysis solution either in the absence of PPi (sham and CRF placebo control groups) or containing two different doses of PPi (as outlined above).
Next, a method was employed whereby morphological image processing algorithms were used for the semi-automated measurement of calcification from sections of aorta stained using von Kossa's silver nitrate procedure (FIGS. 3A and 3B). These were acquired at low magnification power on color images. The process was separated into two sequential phases: 1) segmentation to separate the calcification structures and demarcate the region of the atherosclerotic lesion within the tissue, and 2) the quantification. Calcified structures were measured inside and outside the lesion using a granulometric curve that allows the calculation of statistical parameters of size.

Structure (SMILES) | diaphragmatic inflammation, severity grade (female rats; 600 μM) | thickness of the diaphragm section involved by inflammation (female rats; 600 μM) | diaphragmatic inflammation, severity grade (female rats; 900 μM) | thickness of the diaphragm section involved by inflammation (female rats; 900 μM) | concentration producing chronic inflammation of the peritoneal surface of the diaphragm (local effect) (female rats; intraperitoneal, 7 consecutive days, 40 mL/kg/day, rats) [µM] | total aortic calcium content, effect on CRF-induced elevation ([1]; 30 μM PPi in dialysis solution) | total aortic calcium content, effect on CRF-induced elevation ([1]; 150 μM PPi in dialysis solution) | aortic root calcification inside the atherosclerotic lesion (von Kossa) ([1]; high dose PPi (150 μM)) | aortic root calcification outside the lesion (von Kossa) ([1]; high dose PPi (150 μM)) | aortic root calcification outside the lesion (von Kossa) ([1]; low dose PPi (30 μM)) | inhibition of aortic root calcification inside the atherosclerotic lesion (von Kossa) ([1]; low dose PPi (30 μM))
O=P([O-])([O-])OP(=O)(O)O.[Na+].[Na+] [disodium pyrophosphate] | mild (Grade 2) | 5-25% | mild in 1 rat and moderate in 4 of 5 rats | up to 50% | ≥ 600 |  |  |  |  |  | 
O=P(O)(O)OP(=O)(O)O [pyrophosphate] |  |  |  |  |  | moderate reduction, that was not statistically significant | completely blocked the effect of CRF on elevation of aortic calcium | completely prevented the elevation due to CRF | totally blocked | totally blocked | approximately 50%
